# Laboratory results taken from US20100298141A1, “SUBSTITUTED PYRIDINE N-OXIDE HERBICIDES” (E. I. DU PONT DE NEMOURS AND COMPANY, priority 2007, published 2010).
# Assays:
# johnsongrass = assay: Test C pre-/postemergence test; type: in vivo, Sorghum halepense; conditions: for Plant response rating, Johnsongrass: 31 g ai/ha, scale 0 to 100 (0 no effect, 100 complete control)
# Procedure, shortened: (§1)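 Test chemicals were formulated with surfactant in a non-phytotoxic solvent and sprayed both on freshly planted seeds (preemergence) and on 1- to 4-leaf plants of 2–18 cm (postemergence). Flooded-paddy pots received compound directly into 3 cm of standing water, maintained for the test.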
# crabgrass [1] = assay: Test A pre-/postemergence greenhouse test; type: in vivo, Digitaria sanguinalis; conditions: for Crabgrass, Large plant response rating: 0 to 100 scale; for Plant response rating, Crabgrass, Large: 0 to 100 scale where 0 is no effect and 100 is complete control
# Procedure, shortened: (§2)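 Visual injury ratings against untreated controls, taken roughly ten days after treatment in greenhouse. Plants were sprayed postemergence at one- to two-leaf stage (2–10 cm tall); at the same time, seeded loam/sand soil received a directed preemergence spray. Formulation: non-phytotoxic solvent mixture with surfactant.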
# barnyardgrass = assay: Test A pre-/postemergence greenhouse test; type: in vivo, Echinochloa crus-galli; conditions: for Barnyardgrass plant response rating: 0 to 100 scale; for Plant response rating, Barnyardgrass: 0 to 100 scale where 0 is no effect and 100 is complete control
# Procedure, shortened: as §2
# Goosegrass = assay: Test C pre-/postemergence test; type: in vivo, Eleusin indica; conditions: for Plant response rating, Goosegrass: 31 g ai/ha, scale 0 to 100 (0 no effect, 100 complete control)
# Procedure, shortened: as §1
# pigweed = assay: Test C pre-/postemergence test; type: in vivo, Amaranthus retroflexus; conditions: for Plant response rating, Pigweed: 31 g ai/ha, scale 0 to 100 (0 no effect, 100 complete control)
# Procedure, shortened: as §1
# morningglory = assay: Test C pre-/postemergence test; type: in vivo, Ipomoea coccinea; conditions: for Plant response rating, Morningglory: 31 g ai/ha, scale 0 to 100 (0 no effect, 100 complete control)
# Procedure, shortened: as §1
# wheat = assay: Test A pre-/postemergence greenhouse test; type: in vivo, Triticum aestivum; conditions: for Wheat plant response rating: 0 to 100 scale; for Plant response rating, Wheat: 0 to 100 scale where 0 is no effect and 100 is complete control
# Procedure, shortened: as §2
# crabgrass [2] = assay: Test C pre-/postemergence test; type: in vivo, Digitaria sanguinalis; conditions: for Plant response rating, Crabgrass, Large: 31 g ai/ha, scale 0 to 100 (0 no effect, 100 complete control)
# Procedure, shortened: as §1
# eastern black nightshade = assay: Test C pre-/postemergence test; type: in vivo, Solanum ptycanthum; conditions: for Plant response rating, Nightshade: 31 g ai/ha, scale 0 to 100 (0 no effect, 100 complete control)
# Procedure, shortened: as §1
# umbrella sedge = assay: Test C flooded paddy test; type: in vivo, Cyperus difformis; conditions: Flood
# Procedure, shortened: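 Flooded 3 cm over soil; compound into paddy water; depth kept constant. Greenhouse 13–15 d.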
# Surinam grass = assay: Test C pre-/postemergence test; type: in vivo, Brachiaria decumbens; conditions: for Plant response rating, Surinam Grass: 31 g ai/ha, scale 0 to 100 (0 no effect, 100 complete control)
# Procedure, shortened: as §1
# velvetleaf = assay: Test C pre-/postemergence test; type: in vivo, Abutilon theophrasti; conditions: for Plant response rating, Velvetleaf: 31 g ai/ha, scale 0 to 100 (0 no effect, 100 complete control)
# Procedure, shortened: as §1
# Italian ryegrass = assay: Test C pre-/postemergence test; type: in vivo, Lolium multiflorum; conditions: for Plant response rating, Ryegrass, Italian: 31 g ai/ha, scale 0 to 100 (0 no effect, 100 complete control)
# Procedure, shortened: as §1
# [3] = test system: common (oilseed) sunflower; assay: Test C pre-/postemergence test; type: in vivo, Helianthus annuus; conditions: for Plant response rating, Sunflower: 31 g ai/ha, scale 0 to 100 (0 no effect, 100 complete control)
# Procedure, shortened: as §1
# corn [4] = assay: Test C pre-/postemergence test; type: in vivo, Zea mays; conditions: for Plant response rating, Corn: 31 g ai/ha, scale 0 to 100 (0 no effect, 100 complete control)
# Procedure, shortened: as §1
# giant foxtail = assay: Test C pre-/postemergence test; type: in vivo, Setaria faberii; conditions: for Plant response rating, Foxtail, Giant: 31 g ai/ha, scale 0 to 100 (0 no effect, 100 complete control)
# Procedure, shortened: as §1
# corn [5] = assay: Test A pre-/postemergence greenhouse test; type: in vivo, Zea mays; conditions: for Corn plant response rating: 0 to 100 scale; for Plant response rating, Corn: 0 to 100 scale where 0 is no effect and 100 is complete control
# Procedure, shortened: as §2
# [6] = 62 g ai/ha, Preemergence, scale 0 to 100
# [7] = Postemergence, 125 g ai/ha, 0 is no effect, 100 is complete control
# [8] = Postemergence, 500 g ai/ha, 0 is no effect, 100 is complete control
# [9] = Preemergence, 125 g ai/ha, 0 no effect, 100 complete control
# [10] = 31 g ai/ha, scale 0 to 100 (0 no effect, 100 complete control)
# [11] = 62 g ai/ha, scale 0 to 100, 0 no effect, 100 complete control, 13 to 15 days
# [12] = 125 g ai/ha, scale 0 to 100, 0 no effect, 100 complete control, 13 to 15 days
# [13] = 250 g ai/ha, scale 0 to 100, 0 no effect, 100 complete control, 13 to 15 days
# [14] = 125 g ai/ha, preemergence, scale 0 (no effect) to 100 (complete control)
# [15] = preemergence, 250 g ai/ha, scale 0 (no effect) to 100 (complete control)
structure (smiles),measurement,setting,value
Cn1nc(C(F)(F)F)c(CS(=O)(=O)c2cc(C(C)(C)C)cc[n+]2[O-])c1OC(F)F [Compound 25],Johnsongrass plant response rating,johnsongrass; [6],98
same,"Plant response rating, Johnsongrass",johnsongrass; Preemergence,70
same,"Plant response rating (0 to 100), Johnsongrass","johnsongrass; Preemergence, 250 g ai/ha",100
same,"Crabgrass, Large plant response rating",crabgrass [1]; [7],10
same,"Crabgrass, Large plant response rating",crabgrass [1]; [8],70
same,"Crabgrass, Large plant response rating",crabgrass [1]; [9],90
same,"Plant response rating, Crabgrass, Large","crabgrass [1]; Preemergence, 500 g ai/ha",100
same,Barnyardgrass plant response rating,barnyardgrass; [7],40
same,Barnyardgrass plant response rating,barnyardgrass; [8],50
same,Barnyardgrass plant response rating,barnyardgrass; [9],90
same,"Plant response rating, Barnyardgrass","barnyardgrass; Preemergence, 500 g ai/ha",100
same,Goosegrass plant response rating,Goosegrass; [6],100
same,"Plant response rating, Goosegrass",Goosegrass; Preemergence,100
same,"Plant response rating (0 to 100), Goosegrass","Goosegrass; Preemergence, 250 g ai/ha",100
same,Pigweed plant response rating,pigweed; [6],100
same,"Plant response rating, Pigweed",pigweed; Preemergence,100
same,Morningglory plant response rating,morningglory; [6],50
same,"Plant response rating, Morningglory",morningglory; Preemergence,0
same,Wheat plant response rating,wheat; [7],0
same,Wheat plant response rating,wheat; [8],40
same,Wheat plant response rating,wheat; [9],40
same,"Plant response rating, Wheat","wheat; Preemergence, 500 g ai/ha",60
same,"Crabgrass, Large plant response rating",crabgrass [2]; [6],100
same,"Plant response rating, Crabgrass, Large",crabgrass [2]; Preemergence,100
same,"Plant response rating (0 to 100), Crabgrass, Large","crabgrass [2]; Preemergence, 250 g ai/ha",100
same,Nightshade plant response rating,eastern black nightshade; [6],100
same,"Plant response rating, Nightshade",eastern black nightshade; Preemergence,100
same,"Plant response rating, Sedge, Umbrella",umbrella sedge; [10],0
same,"Plant response rating, Sedge, Umbrella",umbrella sedge; [11],80
same,"Plant response rating, Sedge, Umbrella",umbrella sedge; [12],80
same,"Plant response rating, Sedge, Umbrella",umbrella sedge; [13],85
same,Surinam Grass plant response rating,Surinam grass; [6],50
same,"Plant response rating, Surinam Grass",Surinam grass; Preemergence,0
same,Velvetleaf plant response rating,velvetleaf; [6],80
same,"Plant response rating, Velvetleaf",velvetleaf; Preemergence,20
same,"Ryegrass, Italian plant response rating",Italian ryegrass; [6],0
same,"Plant response rating, Ryegrass, Italian",Italian ryegrass; Preemergence,0
same,Sunflower plant response rating,[3]; [6],0
same,"Plant response rating, Sunflower",[3]; Preemergence,0
same,Corn plant response rating,corn [4]; [6],20
same,"Plant response rating, Corn",corn [4]; Preemergence,0
same,"Plant response rating (0 to 100), Corn","corn [4]; Preemergence, 250 g ai/ha",60
same,Corn plant response rating,"corn [4]; preemergence, 125 g ai/ha, scale 0 (no effect) to 100 (complete control)",60
same,"Foxtail, Giant plant response rating",giant foxtail; [6],85
same,"Plant response rating, Foxtail, Giant",giant foxtail; Preemergence,40
same,Corn plant response rating,corn [5]; [7],0
same,Corn plant response rating,corn [5]; [8],20
same,Corn plant response rating,corn [5]; [9],0
same,"Plant response rating, Corn","corn [5]; Preemergence, 500 g ai/ha",60
Cn1nc(C(F)(F)F)c(C[S+]([O-])c2cc(Br)cc[n+]2[O-])c1Cl (racemic) [Compound 35],Johnsongrass plant response rating,johnsongrass; [6],90
same,Johnsongrass plant response rating,johnsongrass; [14],100
same,"Plant response rating, Johnsongrass",johnsongrass; Preemergence,50
same,Johnsongrass plant response rating,johnsongrass; [15],100
same,"Crabgrass, Large plant response rating",crabgrass [1]; [7],50
same,"Crabgrass, Large plant response rating",crabgrass [1]; [8],80
same,"Crabgrass, Large plant response rating",crabgrass [1]; [9],60
same,"Plant response rating, Crabgrass, Large","crabgrass [1]; Preemergence, 500 g ai/ha",80
same,Barnyardgrass plant response rating,barnyardgrass; [7],50
same,Barnyardgrass plant response rating,barnyardgrass; [8],80
same,Barnyardgrass plant response rating,barnyardgrass; [9],70
same,"Plant response rating, Barnyardgrass","barnyardgrass; Preemergence, 500 g ai/ha",100
same,Goosegrass plant response rating,Goosegrass; [6],100
same,Goosegrass plant response rating,Goosegrass; [14],100
same,"Plant response rating, Goosegrass",Goosegrass; Preemergence,80
same,Goosegrass plant response rating,Goosegrass; [15],100
same,Pigweed plant response rating,pigweed; [6],100
same,Pigweed plant response rating,pigweed; [14],100
same,"Plant response rating, Pigweed",pigweed; Preemergence,100
same,Pigweed plant response rating,pigweed; [15],100
same,Morningglory plant response rating,morningglory; [6],0
same,Morningglory plant response rating,morningglory; [14],80
same,"Plant response rating, Morningglory",morningglory; Preemergence,0
same,Morningglory plant response rating,morningglory; [15],85
same,Wheat plant response rating,wheat; [7],40
same,Wheat plant response rating,wheat; [8],50
same,Wheat plant response rating,wheat; [9],30
same,"Plant response rating, Wheat","wheat; Preemergence, 500 g ai/ha",50
same,"Crabgrass, Large plant response rating",crabgrass [2]; [6],100
same,"Crabgrass, Large plant response rating",crabgrass [2]; [14],100
same,"Plant response rating, Crabgrass, Large",crabgrass [2]; Preemergence,85
same,"Crabgrass, Large plant response rating",crabgrass [2]; [15],100
same,Nightshade plant response rating,eastern black nightshade; [6],100
same,Nightshade plant response rating,eastern black nightshade; [14],100
same,"Plant response rating, Nightshade",eastern black nightshade; Preemergence,0
same,Nightshade plant response rating,eastern black nightshade; [15],100
same,"Plant response rating, Sedge, Umbrella",umbrella sedge; [10],80
same,"Plant response rating, Sedge, Umbrella",umbrella sedge; [11],90
same,"Plant response rating, Sedge, Umbrella",umbrella sedge; [12],95
same,"Plant response rating, Sedge, Umbrella",umbrella sedge; [13],95
same,Surinam Grass plant response rating,Surinam grass; [6],55
same,Surinam Grass plant response rating,Surinam grass; [14],100
same,"Plant response rating, Surinam Grass",Surinam grass; Preemergence,30
same,Surinam Grass plant response rating,Surinam grass; [15],100
same,Velvetleaf plant response rating,velvetleaf; [6],100
same,Velvetleaf plant response rating,velvetleaf; [14],100
same,"Plant response rating, Velvetleaf",velvetleaf; Preemergence,55
same,Velvetleaf plant response rating,velvetleaf; [15],100
same,"Ryegrass, Italian plant response rating",Italian ryegrass; [6],20
same,"Ryegrass, Italian plant response rating",Italian ryegrass; [14],20
same,"Plant response rating, Ryegrass, Italian",Italian ryegrass; Preemergence,10
same,"Ryegrass, Italian plant response rating",Italian ryegrass; [15],20
same,Sunflower plant response rating,[3]; [6],0
same,Sunflower plant response rating,[3]; [14],0
same,"Plant response rating, Sunflower",[3]; Preemergence,0
same,Sunflower plant response rating,[3]; [15],30
same,Corn plant response rating,corn [4]; [6],10
same,Corn plant response rating,corn [4]; [14],30
same,"Plant response rating, Corn",corn [4]; Preemergence,10
same,Corn plant response rating,corn [4]; [15],65
same,"Foxtail, Giant plant response rating",giant foxtail; [6],60
same,"Foxtail, Giant plant response rating",giant foxtail; [14],75
same,"Plant response rating, Foxtail, Giant",giant foxtail; Preemergence,40
same,"Foxtail, Giant plant response rating",giant foxtail; [15],98
same,Corn plant response rating,corn [5]; [7],0
same,Corn plant response rating,corn [5]; [8],30
same,Corn plant response rating,corn [5]; [9],0
same,"Plant response rating, Corn","corn [5]; Preemergence, 500 g ai/ha",0
